Laboratory results published in patent publication US20120034193A1, “TREATMENT OF NEUROTROPHIC FACTOR MEDIATED DISORDERS” (priority 2009, published 2012).

What was measured:
Acetyl CoA synthetase = assay: Enzyme activity assay; type: biochemical, Yeast; settings: sarsasapogenin 100 μM
Protocol: (§1) The enzyme activity modulation was investigated using the following method: Sarsasapogenin was incubated with each enzyme plus a specific substrate for each enzyme. After the incubation period the reaction was stopped and the reduction of the specific substrate or the increase in a specific product in the absence and presence of sarsasapogenin was measured and the percent inhibition of the reaction in the presence of sarsasapogenin was calculated. The amount of enzyme used, the incubation conditions, the substrate used and the method of quantification varied depending on each specific assay.

Oestrogen = assay: Receptor binding assay; parameters: species or system Bovine; settings: sarsasapogenin 10 μM
Protocol: (§2) The receptor binding was investigated using the following method: Sarsasapogenin was incubated with tissue or cell homogenate that expressed the receptor of interest and a known concentration a radiolabelled compound with affinity for the receptor of interest. After the incubation period the non-bound radiolabelled compound was removed and the amount of specific binding was quantified. The amount of specific binding in the presence and absence of sarsasapogenin were compared and the percent inhibition of the binding of the radiolabelled compound by sarsasapogenin was calculated. The source of the receptor, the incubation conditions, the radiolabelled compound used varied depending on each specific assay.

Progesterone = assay: Receptor binding assay; parameters: species or system Bovine; settings: sarsasapogenin 10 μM
Protocol: as §2

[1] = target: Nicotinic Acetylcholine α7, Bungarotoxin (Rattus norvegicus, UniProt Q05941); assay: Binding assay; settings: smilagenin 1 μM
Chain of Nicotinic Acetylcholine α7, Bungarotoxin (Q05941 23-502): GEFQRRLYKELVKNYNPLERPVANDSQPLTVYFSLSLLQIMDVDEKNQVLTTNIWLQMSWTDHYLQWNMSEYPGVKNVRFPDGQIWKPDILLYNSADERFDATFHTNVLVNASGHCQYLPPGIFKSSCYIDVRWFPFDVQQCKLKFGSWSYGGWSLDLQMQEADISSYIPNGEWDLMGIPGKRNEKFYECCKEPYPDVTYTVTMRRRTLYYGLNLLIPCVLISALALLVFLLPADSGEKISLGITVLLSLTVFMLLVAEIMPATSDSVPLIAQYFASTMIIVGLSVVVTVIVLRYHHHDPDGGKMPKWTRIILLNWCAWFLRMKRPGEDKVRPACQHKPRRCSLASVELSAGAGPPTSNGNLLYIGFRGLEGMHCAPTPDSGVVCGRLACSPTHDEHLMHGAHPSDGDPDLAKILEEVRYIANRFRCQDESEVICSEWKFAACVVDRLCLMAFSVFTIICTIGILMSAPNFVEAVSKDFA

Aldose reductase = Aldose reductase (Rattus norvegicus, UniProt P07943); assay: Functional assay; type: biochemical; settings: smilagenin 1 μM
Protocol: as §1
(§3) Using the same methods as described above, the binding of smilagenin (1 μM) to the receptors listed in Table 2 below, and the effect of smilagenin on the activity of the enzymes listed in Table 2 below, were investigated.

[2] = target: Protein Serine/Threonine Kinase, AKT1 (PRKBA) (Homo sapiens, UniProt P31749); assay: Functional assay; type: biochemical; settings: smilagenin 1 μM
Chain of Protein Serine/Threonine Kinase, AKT1 (PRKBA) (P31749 whole entry): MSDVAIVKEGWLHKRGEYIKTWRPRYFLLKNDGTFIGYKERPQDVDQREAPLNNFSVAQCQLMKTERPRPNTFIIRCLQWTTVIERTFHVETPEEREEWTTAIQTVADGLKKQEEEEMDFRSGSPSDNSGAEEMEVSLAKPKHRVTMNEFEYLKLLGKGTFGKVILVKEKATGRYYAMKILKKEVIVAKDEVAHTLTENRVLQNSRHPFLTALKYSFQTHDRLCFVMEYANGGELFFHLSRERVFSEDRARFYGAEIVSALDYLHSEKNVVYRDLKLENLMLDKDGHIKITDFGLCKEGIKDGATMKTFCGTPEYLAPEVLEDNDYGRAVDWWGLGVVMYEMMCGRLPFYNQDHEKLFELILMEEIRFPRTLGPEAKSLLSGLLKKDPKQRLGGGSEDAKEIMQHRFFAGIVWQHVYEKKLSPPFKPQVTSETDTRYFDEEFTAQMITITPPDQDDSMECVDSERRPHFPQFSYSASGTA
Protocol: as §1, §3

[3] = target: Protein Serine/Threonine Kinase, CAMK2D (KCC2D) (Homo sapiens, UniProt Q13557); assay: Functional assay; type: biochemical; settings: smilagenin 1 μM
Protocol: as §1, §3

[4] = target: Protein Serine/Threonine Kinase, MAP2K1 (MEK1 ) (Homo sapiens, UniProt Q02750); assay: Functional assay; type: biochemical; settings: smilagenin 1 μM
Chain of Protein Serine/Threonine Kinase, MAP2K1 (MEK1 ) (Q02750 whole entry): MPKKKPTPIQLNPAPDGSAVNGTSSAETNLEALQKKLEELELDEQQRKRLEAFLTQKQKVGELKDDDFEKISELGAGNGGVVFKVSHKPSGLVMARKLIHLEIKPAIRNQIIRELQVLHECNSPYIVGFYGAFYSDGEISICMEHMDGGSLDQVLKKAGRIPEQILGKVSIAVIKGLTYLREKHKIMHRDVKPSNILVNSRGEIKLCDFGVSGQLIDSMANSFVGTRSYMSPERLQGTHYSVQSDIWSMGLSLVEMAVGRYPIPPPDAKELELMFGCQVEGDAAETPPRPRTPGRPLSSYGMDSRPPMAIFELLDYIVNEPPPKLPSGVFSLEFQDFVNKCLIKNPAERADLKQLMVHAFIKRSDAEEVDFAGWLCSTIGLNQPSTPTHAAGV
Protocol: as §1, §3

[5] = target: Protein Serine/Threonine Kinase, MAPK1 (ERK2) (Homo sapiens, UniProt P28482); assay: Functional assay; type: biochemical; settings: smilagenin 1 μM
Chain of Protein Serine/Threonine Kinase, MAPK1 (ERK2) (P28482 whole entry): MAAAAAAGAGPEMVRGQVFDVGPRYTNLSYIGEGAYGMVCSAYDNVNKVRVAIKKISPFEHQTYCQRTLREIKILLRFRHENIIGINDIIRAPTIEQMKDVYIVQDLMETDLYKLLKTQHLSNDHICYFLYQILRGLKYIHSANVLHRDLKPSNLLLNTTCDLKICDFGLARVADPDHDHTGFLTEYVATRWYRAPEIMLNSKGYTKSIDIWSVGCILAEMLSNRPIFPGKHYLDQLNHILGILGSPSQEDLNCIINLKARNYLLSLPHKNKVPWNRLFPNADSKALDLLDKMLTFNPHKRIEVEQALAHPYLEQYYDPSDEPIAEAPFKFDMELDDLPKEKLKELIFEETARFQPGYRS
Protocol: as §1, §3

[6] = target: Protein Serine/Threonine Kinase, MAPK11 (p38β) (Homo sapiens, UniProt Q15759); assay: Functional assay; type: biochemical; settings: smilagenin 1 μM
Chain of Protein Serine/Threonine Kinase, MAPK11 (p38β) (Q15759 whole entry): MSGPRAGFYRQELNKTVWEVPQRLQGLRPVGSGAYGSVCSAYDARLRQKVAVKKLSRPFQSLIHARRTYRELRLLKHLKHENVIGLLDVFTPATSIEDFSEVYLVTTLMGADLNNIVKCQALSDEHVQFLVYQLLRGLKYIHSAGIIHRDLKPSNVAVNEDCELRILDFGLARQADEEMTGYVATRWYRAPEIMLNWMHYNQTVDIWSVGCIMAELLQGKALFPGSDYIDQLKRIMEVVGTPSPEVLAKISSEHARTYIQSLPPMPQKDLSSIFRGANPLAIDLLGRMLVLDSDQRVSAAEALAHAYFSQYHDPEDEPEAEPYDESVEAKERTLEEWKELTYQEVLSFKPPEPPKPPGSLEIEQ
Protocol: as §1, §3

[7] = target: Protein Serine/Threonine Kinase, MAPK12 (p38γ) (Homo sapiens, UniProt P53778); assay: Functional assay; type: biochemical; settings: smilagenin 1 μM
Chain of Protein Serine/Threonine Kinase, MAPK12 (p38γ) (P53778 whole entry): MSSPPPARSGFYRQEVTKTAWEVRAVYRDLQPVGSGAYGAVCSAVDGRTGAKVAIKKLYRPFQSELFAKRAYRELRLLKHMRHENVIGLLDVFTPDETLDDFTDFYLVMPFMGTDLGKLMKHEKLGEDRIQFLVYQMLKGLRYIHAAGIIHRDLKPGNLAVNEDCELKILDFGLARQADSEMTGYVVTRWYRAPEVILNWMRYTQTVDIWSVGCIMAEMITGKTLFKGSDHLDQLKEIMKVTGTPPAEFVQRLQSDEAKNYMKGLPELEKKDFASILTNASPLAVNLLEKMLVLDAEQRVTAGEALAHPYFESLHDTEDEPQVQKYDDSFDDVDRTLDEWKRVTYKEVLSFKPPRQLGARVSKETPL
Protocol: as §1, §3

[8] = target: Protein Serine/Threonine Kinase, MAPK13 (p38δ) (Homo sapiens, UniProt O15264); assay: Functional assay; type: biochemical; settings: smilagenin 1 μM
Chain of Protein Serine/Threonine Kinase, MAPK13 (p38δ) (O15264 whole entry): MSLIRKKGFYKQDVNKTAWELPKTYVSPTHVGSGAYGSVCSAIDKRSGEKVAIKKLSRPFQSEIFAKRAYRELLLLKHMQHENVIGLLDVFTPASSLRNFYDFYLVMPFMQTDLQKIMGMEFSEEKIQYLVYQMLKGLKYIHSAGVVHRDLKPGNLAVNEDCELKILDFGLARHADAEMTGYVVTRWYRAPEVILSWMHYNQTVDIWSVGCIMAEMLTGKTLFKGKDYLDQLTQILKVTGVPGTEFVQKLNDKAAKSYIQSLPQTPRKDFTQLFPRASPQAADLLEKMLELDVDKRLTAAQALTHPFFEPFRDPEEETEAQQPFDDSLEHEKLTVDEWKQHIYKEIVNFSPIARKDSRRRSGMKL
Protocol: as §1, §3

[9] = target: Protein Serine/Threonine Kinase, MAPK8 (JNK1) (Homo sapiens, UniProt P45983); assay: Functional assay; type: biochemical; settings: smilagenin 1 μM
Chain of Protein Serine/Threonine Kinase, MAPK8 (JNK1) (P45983 whole entry): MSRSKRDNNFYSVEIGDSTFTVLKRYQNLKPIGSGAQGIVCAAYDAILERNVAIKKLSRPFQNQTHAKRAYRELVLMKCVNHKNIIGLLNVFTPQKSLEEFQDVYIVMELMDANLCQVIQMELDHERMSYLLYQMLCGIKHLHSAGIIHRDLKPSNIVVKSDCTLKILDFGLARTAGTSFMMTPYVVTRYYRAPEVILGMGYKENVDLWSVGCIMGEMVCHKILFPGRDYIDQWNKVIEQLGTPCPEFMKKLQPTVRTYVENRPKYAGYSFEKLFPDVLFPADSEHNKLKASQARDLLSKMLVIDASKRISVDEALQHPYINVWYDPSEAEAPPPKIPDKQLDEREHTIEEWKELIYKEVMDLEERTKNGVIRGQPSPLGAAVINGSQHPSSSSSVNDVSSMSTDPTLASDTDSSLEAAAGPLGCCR
Protocol: as §1, §3

[10] = target: Protein Tyrosine Kinase, NTRK2 (trkB) (Homo sapiens, UniProt Q16620); assay: Functional assay; type: biochemical; settings: smilagenin 1 μM
Chain of Protein Tyrosine Kinase, NTRK2 (trkB) (Q16620 32-822): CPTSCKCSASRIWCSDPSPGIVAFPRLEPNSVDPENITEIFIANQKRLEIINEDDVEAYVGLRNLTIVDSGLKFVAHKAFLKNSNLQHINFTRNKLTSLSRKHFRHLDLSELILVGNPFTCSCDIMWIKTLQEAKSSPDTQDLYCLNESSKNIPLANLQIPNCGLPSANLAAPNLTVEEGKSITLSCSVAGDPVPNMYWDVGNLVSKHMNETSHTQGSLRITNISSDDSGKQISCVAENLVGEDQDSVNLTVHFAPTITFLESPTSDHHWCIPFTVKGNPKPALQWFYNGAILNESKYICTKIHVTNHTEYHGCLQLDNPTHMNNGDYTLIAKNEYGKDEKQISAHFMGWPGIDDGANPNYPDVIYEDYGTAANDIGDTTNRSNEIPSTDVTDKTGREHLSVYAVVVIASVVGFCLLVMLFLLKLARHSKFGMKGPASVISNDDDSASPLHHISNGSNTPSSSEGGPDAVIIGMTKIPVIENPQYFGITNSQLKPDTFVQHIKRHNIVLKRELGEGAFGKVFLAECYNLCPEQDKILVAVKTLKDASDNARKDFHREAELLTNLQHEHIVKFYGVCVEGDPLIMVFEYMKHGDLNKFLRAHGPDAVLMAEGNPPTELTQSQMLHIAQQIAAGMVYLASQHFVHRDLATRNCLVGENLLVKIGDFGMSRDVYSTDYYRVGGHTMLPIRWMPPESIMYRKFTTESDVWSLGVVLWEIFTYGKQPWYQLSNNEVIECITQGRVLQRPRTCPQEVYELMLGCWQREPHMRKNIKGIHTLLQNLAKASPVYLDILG
Protocol: as §1, §3

[11] = target: UDP Glucuronosyltransferase, UGT1A1 (Homo sapiens, UniProt P22309); assay: Functional assay; type: biochemical; settings: smilagenin 1 μM
Chain of UDP Glucuronosyltransferase, UGT1A1 (P22309 26-533): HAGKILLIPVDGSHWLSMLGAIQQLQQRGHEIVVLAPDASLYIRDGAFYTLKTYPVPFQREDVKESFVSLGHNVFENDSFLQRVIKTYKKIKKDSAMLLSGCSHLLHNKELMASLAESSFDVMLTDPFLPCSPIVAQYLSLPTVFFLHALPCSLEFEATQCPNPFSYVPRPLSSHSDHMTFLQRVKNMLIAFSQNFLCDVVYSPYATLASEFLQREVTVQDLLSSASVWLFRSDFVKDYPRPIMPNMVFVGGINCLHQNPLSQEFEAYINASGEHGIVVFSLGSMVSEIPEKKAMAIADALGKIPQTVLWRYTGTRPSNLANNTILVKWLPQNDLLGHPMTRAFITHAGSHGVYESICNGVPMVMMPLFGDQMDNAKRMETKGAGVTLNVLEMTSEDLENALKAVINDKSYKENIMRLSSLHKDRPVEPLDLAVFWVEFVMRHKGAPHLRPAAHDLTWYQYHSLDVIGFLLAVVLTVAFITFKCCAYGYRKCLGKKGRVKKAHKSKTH
Protocol: as §1, §3

[12] = tested on: Free Radical Scavenger, SOD Mimetic; assay: Functional assay; type: biochemical, Bovine; settings: smilagenin 1 μM
Protocol: as §1, §3

BDNF = assay: Striatal BDNF in MPTP-lesioned mice (ELISA); type: in vivo, C57b1/6 RJ mice; settings: smilagenin 10 mg/kg/day oral, 60 days, striatum
Protocol: Seven-week old male C57b1/6 RJ mice (C57 mice) received daily injections 1-methyl-4-phenyl-1,2,3,6-tetrahydropyridine (MPTP, 25 mg/kg/day, i.p., for 5 consecutive days) and oral administration of smilagenin (10 mg/kg/day) or vehicle (hydroxylpropylmethylcellulose, HPMC 0.5% w/v containing tween-80 0.2% v/v) for 60 days after which time their brains were removed for quantification of striatal levels of GDNF and BDNF using an ELISA and of dopamine transporter (DAT) levels using [I^125]-RTI binding. DAT is a marker for neuronal damage to dopaminergic neurones.

[13] = tested on: dopamine transporter (DAT); assay: Striatal DAT level in control and MPTP mice, 61 or 71 days of dosing; type: in vivo, C57 mice; settings: 10 mg/kg/day oral
Protocol: In a similar experiment, 10-week old male C57 mice received daily injections of saline or MPTP (25 mg/kg/day, i.p.) for 5 consecutive days (days 1-5) and oral administration of smilagenin (10 mg/kg/day) or vehicle (HPMC 0.5% w/v containing tween-80 0.2% v/v) for 61 days (days […]) or 71 days (days 2-72) after which time their brains were removed for quantification of striatal levels of DAT, marker of the extent of neuronal damage to dopaminergic neurones

For `C[C@H]1CC[C@@]2(OC1)O[C@H]1C[C@H]3[C@@H]4CC[C@@H]5C[C@@H](O)CC[C@]5(C)[C@H]4CC[C@]3(C)[C@H]1[C@@H]2C` [Sarsasapogenin, sarsasapogenin], the “Effect (%)” value (Acetyl CoA synthetase) was “NS (NS = No significant response. Significance was taken as ≧30% stimulation or inhibition)”, the “Effect (%)” value (Oestrogen) was “NS (NS = No significant response. Significance was taken as ≧30% stimulation or inhibition)” and the “Effect (%)” value (Progesterone) was “NS (NS = No significant response. Significance was taken as ≧30% stimulation or inhibition)”.

For `C[C@@H]1CC[C@@]2(OC1)O[C@H]1C[C@H]3[C@@H]4CC[C@@H]5C[C@@H](O)CC[C@]5(C)[C@H]4CC[C@]3(C)[C@H]1[C@@H]2C` [Smilagenin, smilagenin], the “Effect (%)” value [1] was “NS (NS = No significant response. Significance was taken as ≧30% stimulation or inhibition)”, the “Effect (%)” value (Aldose reductase) was “NS (NS = No significant response. Significance was taken as ≧30% stimulation or inhibition)” and the “Effect (%)” value [2] was “NS (NS = No significant response. Significance was taken as ≧30% stimulation or inhibition)”. For the same compound, the “Effect (%)” value [3] was “NS (NS = No significant response. Significance was taken as ≧30% stimulation or inhibition)”, the “Effect (%)” value [4] was “NS (NS = No significant response. Significance was taken as ≧30% stimulation or inhibition)” and the “Effect (%)” value [5] was “NS (NS = No significant response. Significance was taken as ≧30% stimulation or inhibition)”. For the same compound, the “Effect (%)” value [6] was “NS (NS = No significant response. Significance was taken as ≧30% stimulation or inhibition)”, the “Effect (%)” value [7] was “NS (NS = No significant response. Significance was taken as ≧30% stimulation or inhibition)” and the “Effect (%)” value [8] was “NS (NS = No significant response. Significance was taken as ≧30% stimulation or inhibition)”. For the same compound, the “Effect (%)” value [9] was “NS (NS = No significant response. Significance was taken as ≧30% stimulation or inhibition)”, the “Effect (%)” value [10] was “NS (NS = No significant response. Significance was taken as ≧30% stimulation or inhibition)” and the “Effect (%)” value [11] was “NS (NS = No significant response. Significance was taken as ≧30% stimulation or inhibition)”. For the same compound, the “Effect (%)” value [12] was “NS (NS = No significant response. Significance was taken as ≧30% stimulation or inhibition)”, the “BDNF (% increase above MPTP mice)” value (BDNF) was 164 ± 53 % and the “BDNF (pg/mg tissue)” value (BDNF) was 46.91 ± 9.97 pg/mg tissue. For the same compound, the “DAT level ([I^125]-RTI binding in the striatum; nCi/g protein)” value (“DAT level” for short) ([13]; MPTP mice, days 2-72) was 256.2 ± 21.4^++++ nCi/g protein, the “DAT level” value ([13]; MPTP mice, days 12-72) was 280.3 ± 18.3^++++ nCi/g protein and the “DAT level” value ([13]; control mice (no MPTP), days 2-72) was 406.2 ± 21.8 nCi/g protein.
